US7494824B2, “Interactive system for presenting and eliminating substances” (Max-Planck-Gesellschaft zur Förderung der Wissenschaften e. …, priority 1997, dated 2009)

Key:
[1] = biological target: thrombin (Homo sapiens, UniProt P00734); conditions: previous analyses, Dickneite G. et al.; cited from earlier work
[2] = Urea assay of enzyme activity, pH titration, compared with non-conjugated urease; assay type: biochemical
Protocol: (§1) As model enzyme, urease (EC 3.5.1.5., available from Sigma, order no. U 1500) is used. The preparation of a PEG-coupled urease preparation: 100 mg urease (type III, specific activity 20,000 to 30,000 U/g) are dissolved in 80 ml 0.1-mol borate buffer (pH 8) and added to 250 mg methoxy polyethylene glycol (25,000)-4-nitrophenyl carbonate and incubated for 24 h at 5° C. The reaction is stopped by a several times higher molar excess of TRIS, dialyzed against TRIS-HCl (pH 8) and developed in a HP-Q-sepharose column having a linear NaCl gradient (pH 8). The PEG urease conjugate elutes-at 180 to 200 mmol NaCl. The yield of PEG urease conjugate is 30-40%. The enzyme activity is measured by means of a urea assay. The cleaving activity is monitored by way of pH titration measuring and compared with non-conjugated urease. […] The urease coupled with 25 kD-polyethylene glycol is applied in a concentration of 2 mg (based on the protein content of the conjugate) to a miniaturized experimental capillary dialyzer having a surface of 50 cm^2. Already after the first circulation, more than 90% of the urease are immobilized on the surface. By the fifth recirculation cycle, the PEG urease is firmly installed on the surface of the membrane. […] A blood plasma solution (50 ml containing 30 mg urea) is applied to the urease-doped PMMA capillary dialyzer system. […]

[3] = Immobilization of PEG urease on miniaturized experimental PMMA capillary dialyzer; conditions: 2 mg on 50 cm^2 dialyzer, after the first circulation
Protocol: as §1

[4] = Urea breakdown in blood plasma solution on urease-doped PMMA capillary dialyzer system; assay type: biochemical
Protocol: As model enzyme, urease (EC 3.5.1.5., available from Sigma, order no. U 1500) is used. The preparation of a PEG-coupled urease preparation: 100 mg urease (type III, specific activity 20,000 to 30,000 U/g) are dissolved in 80 ml 0.1-mol borate buffer (pH 8) and added to 250 mg methoxy polyethylene glycol (25,000)-4-nitrophenyl carbonate and incubated for 24 h at 5° C. The reaction is stopped by a several times higher molar excess of TRIS, dialyzed against TRIS-HCl (pH 8) and developed in a HP-Q-sepharose column having a linear NaCl gradient (pH 8). The PEG urease conjugate elutes-at 180 to 200 mmol NaCl. The yield of PEG urease conjugate is 30-40%. The enzyme activity is measured by means of a urea assay. The cleaving activity is monitored by way of pH titration measuring and compared with non-conjugated urease. […] The urease coupled with 25 kD-polyethylene glycol is applied in a concentration of 2 mg (based on the protein content of the conjugate) to a miniaturized experimental capillary dialyzer having a surface of 50 cm^2. Already after the first circulation, more than 90% of the urease are immobilized on the surface. By the fifth recirculation cycle, the PEG urease is firmly installed on the surface of the membrane. […] A blood plasma solution (50 ml containing 30 mg urea) is applied to the urease-doped PMMA capillary dialyzer system. In the eluate of the experimental PEG-urease-PMMA membrane, the remaining amounts of urea are identified after 5, 10, 20, and 30 minutes by way of an enzyme assay. […] The ammonia test in the blood is positive during the last 25 minutes of the experiment. From the analysis, it can be doubtlessly concluded that a pegylated enzyme, bonded to the PMMA membrane, develops a local enzyme activity and is able to generate corresponding specific interactions with its substrate in the circulating blood.

Substance | thrombin inhibiting agent quality [1] | influence of pegylation on the ureolytic activity of the enzyme [2] | urease immobilized on the surface [3] | remaining urea in the eluate ([4]; 50 ml plasma containing 30 mg urea, after 30 min) | urea concentration in the blood plasma ([4]; 50 ml plasma containing 30 mg urea, within the first 10 min) | ammonia test in the blood ([4]; during the last 25 minutes of the experiment)
Mtr-Asn-D-Adf-Pip | highly specific and effective |  |  |  |  | 
PEG urease: urease (EC 3.5.1.5., Sigma) coupled with 25 kD-polyethylene glycol |  | slightly activity-increasing | more than 90% | unbound urea cannot be identified anymore | decreases rapidly | positive
